Results: ChEMBL document CHEMBL5247627, “1-Methyl-3-((4-(quinolin-4-yloxy)phenyl)amino)-1H-pyrazole-4-carboxamide derivatives as new rearranged during Transfection (RET) kinase inhibitors capable of suppressing resistant mutants in solvent-front regions” (Eur J Med Chem, 2022)
Active and inactive are the calls of the source. The rule behind the calls is not given here.

Legend:
[1] = Toxicity in CB17-SCID mouse xenografted with BaF3 cells expressing CCDC6-RET G810C assessed as tolerability measured at 10 to 30 mg/kg, ip qd administered for 12 days; type: organism-based; settings: in vivo, 288 h, dose 10-30 mg/kg, time 12 day
[2] = test system: BaF3; test: Antiproliferative activity against mouse BaF3 cells expressing wildtype rearranged during transfection kinase-CCDC6 incubated for 74 to 76 hrs by cell counting kit 8 method
[3] = test system: BaF3; test: Antiproliferative activity against mouse BaF3 cells expressing rearranged during transfection kinase G810R-CCDC6 incubated for 74 to 76 hrs by cell counting kit 8 method
[4] = test system: BaF3; test: Antiproliferative activity against mouse BaF3 cells incubated for 74 to 76 hrs by cell counting kit 8 method; type: functional, cell-based
[5] = test system: BaF3; test: Antiproliferative activity against mouse BaF3 cells expressing rearranged during transfection kinase V804L-KIF5B incubated for 74 to 76 hrs by cell counting kit 8 method
[6] = test system: BaF3; test: Antiproliferative activity against mouse BaF3 cells expressing rearranged during transfection kinase V804L-G810C incubated for 74 to 76 hrs by cell counting kit 8 method
[7] = test system: BaF3; test: Antiproliferative activity against mouse BaF3 cells expressing rearranged during transfection kinase V804L-G810R incubated for 74 to 76 hrs by cell counting kit 8 method
[8] = test system: BaF3; test: Induction of apoptosis in mouse BaF3 cells harbouring CCDC6-RET G810C assessed as early apoptotic cells measured at 33.3 nM for 48 hrs by Annexin V-FITC staining based Guava easyCyte flow cytometric analysis (reference value: 6.10 %); type: functional
[9] = test system: BaF3; test: Induction of apoptosis in mouse BaF3 cells harbouring CCDC6-RET G810C assessed as late apoptotic cells measured at 33.3 nM for 48 hrs by Annexin V-FITC staining based Guava easyCyte flow cytometric analysis (reference value: 2.65 %); type: functional
[10] = test system: BaF3; test: Induction of apoptosis in mouse BaF3 cells harbouring CCDC6-RET G810C assessed as necrotic cells measured at 33.3 nM for 48 hrs by Annexin V-FITC staining based Guava easyCyte flow cytometric analysis (reference value: 0.35 %); type: functional
[11] = test system: BaF3; test: Induction of apoptosis in mouse BaF3 cells harbouring CCDC6-RET G810C assessed as early apoptotic cells measured at 100 nM for 48 hrs by Annexin V-FITC staining based Guava easyCyte flow cytometric analysis (reference value: 6.10 %); type: functional
[12] = test system: BaF3; test: Induction of apoptosis in mouse BaF3 cells harbouring CCDC6-RET G810C assessed as late apoptotic cells measured at 100 nM for 48 hrs by Annexin V-FITC staining based Guava easyCyte flow cytometric analysis (reference value: 2.65 %); type: functional
[13] = test system: BaF3; test: Induction of apoptosis in mouse BaF3 cells harbouring CCDC6-RET G810C assessed as necrotic cells measured at 100 nM for 48 hrs by Annexin V-FITC staining based Guava easyCyte flow cytometric analysis (reference value: 0.35 %); type: functional
[14] = test system: BaF3; test: Induction of apoptosis in mouse BaF3 cells harbouring CCDC6-RET G810C assessed as early apoptotic cells measured at 300 nM for 48 hrs by Annexin V-FITC staining based Guava easyCyte flow cytometric analysis (reference value: 6.10 %); type: functional
[15] = test system: BaF3; test: Induction of apoptosis in mouse BaF3 cells harbouring CCDC6-RET G810C assessed as late apoptotic cells measured at 300 nM for 48 hrs by Annexin V-FITC staining based Guava easyCyte flow cytometric analysis (reference value: 2.65 %); type: functional
[16] = test system: BaF3; test: Induction of apoptosis in mouse BaF3 cells harbouring CCDC6-RET G810C assessed as necrotic cells measured at 300 nM for 48 hrs by Annexin V-FITC staining based Guava easyCyte flow cytometric analysis (reference value: 0.35 %); type: functional
[17] = test system: BaF3; test: Induction of apoptosis in mouse BaF3 cells harbouring CCDC6-RET G810R assessed as viable cells measured at 33.3 nM for 48 hrs by Annexin V-FITC staining based Guava easyCyte flow cytometric analysis (reference value: 89.5 %); type: functional; settings: read-out: Activity
[18] = test system: BaF3; test: Induction of apoptosis in mouse BaF3 cells harbouring CCDC6-RET G810R assessed as late apoptotic cells measured at 33.3 nM for 48 hrs by Annexin V-FITC staining based Guava easyCyte flow cytometric analysis (reference value: 3.4 %); type: functional
[19] = test system: BaF3; test: Induction of apoptosis in mouse BaF3 cells harbouring CCDC6-RET G810R assessed as viable cells measured at 100 nM for 48 hrs by Annexin V-FITC staining based Guava easyCyte flow cytometric analysis (reference value: 89.5 %); type: functional; settings: read-out: Activity
[20] = test system: BaF3; test: Induction of apoptosis in mouse BaF3 cells harbouring CCDC6-RET G810R assessed as early apoptotic cells measured at 100 nM for 48 hrs by Annexin V-FITC staining based Guava easyCyte flow cytometric analysis (reference value: 6.46 %); type: functional
[21] = test system: BaF3; test: Induction of apoptosis in mouse BaF3 cells harbouring CCDC6-RET G810R assessed as necrotic cells measured at 100 nM for 48 hrs by Annexin V-FITC staining based Guava easyCyte flow cytometric analysis (reference value: 0.64 %); type: functional
[22] = test system: BaF3; test: Induction of apoptosis in mouse BaF3 cells harbouring CCDC6-RET G810R assessed as viable cells measured at 300 nM for 48 hrs by Annexin V-FITC staining based Guava easyCyte flow cytometric analysis (reference value: 89.5 %); type: functional; settings: read-out: Activity
[23] = test system: BaF3; test: Induction of apoptosis in mouse BaF3 cells harbouring CCDC6-RET G810R assessed as late apoptotic cells measured at 300 nM for 48 hrs by Annexin V-FITC staining based Guava easyCyte flow cytometric analysis (reference value: 3.4 %); type: functional
[24] = Toxicity in CB17-SCID mouse xenografted with BaF3 cells expressing CCDC6-RET G810C assessed as loss of body weight measured at 10 to 30 mg/kg, ip qd administered for 12 days measured every 2 days; type: organism-based; settings: in vivo, 288 h, dose 10-30 mg/kg, time 12 day
[25] = test system: BaF3; test: Antitumor activity against mouse BaF3 cells harbouring CCDC6-RET G810C cells xenografted in CB17-SCID mouse assessed as reduction in tumor growth administered intraperitoneally qd administered for 12 days measured every 2 days; type: functional, cell-based; settings: dose 10-30 mg/kg, route ip, time 12.0 day
[26] = test system: BaF3; test: Antitumor activity against mouse BaF3 cells harbouring CCDC6-RET G810C cells xenografted in CB17-SCID mouse assessed as reduction in tumor growth at 10 mg/kg ip qd administered for 12 days measured every 2 days relative to control; type: functional; settings: BaF3, 288 h, time 12 day, read-out: TGI
[27] = test system: BaF3; test: Antitumor activity against mouse BaF3 cells harbouring CCDC6-RET G810C cells xenografted in CB17-SCID mouse assessed as reduction in tumor growth at 30 mg/kg ip qd administered for 12 days measured every 2 days relative to control; type: functional; settings: BaF3, 288 h, time 12 day, read-out: TGI
[28] = test system: BaF3; settings: Mus musculus, dose 100.0 nM, time 4.0 hrs
[29] = test system: BaF3; settings: Mus musculus, dose 100.0 nM, time 4.0 hrs; remark: listed apart in the source
[30] = test system: BaF3; settings: Mus musculus, dose 100.0 nM, time 4.0 hrs; remark: listed apart in the source
[31] = test system: BaF3; settings: Mus musculus, CB17-SCID, Tumor/tissue, dose 10-30 mg/kg, route ip, time 13.0 day

## COc1cc2nccc(Oc3ccc(Nc4nn(C)cc4C(=O)NC45CC6CC(CC(C6)C4)C5)c(F)c3)c2cc1C(N)=O
[1]
  Activity: Non-Toxic
[2]
  IC50: 0.0056 µM
[3]
  IC50: 0.0532 µM
[4]
  IC50: > 10 µM
[5]
  IC50: 0.0473 µM
[6]
  IC50: 0.0542 µM
[7]
  IC50: 0.12 µM
[8]
  Activity: 7.39%
[9]
  Activity: 1.5%
[10]
  Activity: 0.28%
[11]
  Activity: 17.19%
[12]
  Activity: 2.39%
[13]
  Activity: 0.25%
[14]
  Activity: 53.4%
[15]
  Activity: 3.08%
[16]
  Activity: 0.41%
[17]
  viability at 0.0333 µM: 91.1%
[18]
  Activity: 2.25%
[19]
  viability at 0.1 µM: 88.6%
[20]
  Activity: 9.4%
[21]
  Activity: 0.23%
[22]
  viability at 0.3 µM: 63.9%
[23]
  Activity: 3.21%
[24]
  Activity: Non-Toxic
[25]
  Activity: Dose-Dependent Effect
[26]
  inhibition in vivo at 10 mg/kg: 17.1%
[27]
  inhibition in vivo at 30 mg/kg: 66.9%
[28]
  inhibition: Active
[29]
  inhibition: Active
[30]
  inhibition: Active
[31]
  inhibition: Active
